Experiments:
[1] = tested on: Frankliniella occidentalis; test: Insecticidal activity against Frankliniella occidentalis MLFOM (western flower thrips); type: functional
[2] = tested on: Frankliniella occidentalis; test: Insecticidal activity against Frankliniella occidentalis ACR (western flower thrips); type: functional, organism-based
[3] = tested on: Frankliniella occidentalis; test: Resistance ratio, LC50 for Frankliniella occidentalis MLFOM (western flower thrips) to LC50 for Frankliniella occidentalis ACR; type: functional
[4] = tested on: Frankliniella occidentalis; test: Resistance ratio, LC50 for Frankliniella occidentalis MLFOM (western flower thrips) to LC50 for Frankliniella occidentalis FOR; type: functional
[5] = tested on: Frankliniella occidentalis; test: Insecticidal activity against Frankliniella occidentalis FOR (western flower thrips); type: functional, organism-based
[6] = tested on: Frankliniella occidentalis; test: Resistance ratio, LC50 for Frankliniella occidentalis MLFOM (western flower thrips) to LC50 for Frankliniella occidentalis MET; type: functional
[7] = Inhibition of Frankliniella occidentalis FOR (western flower thrips) total esterase activity
[8] = Inhibition of Frankliniella occidentalis ACR (western flower thrips) total esterase activity
[9] = Inhibition of Frankliniella occidentalis MLFOM (western flower thrips) total esterase activity
[10] = tested on: Frankliniella occidentalis; test: Insecticidal activity against Frankliniella occidentalis MET (western flower thrips); type: functional
[11] = Inhibition of Frankliniella occidentalis MET (western flower thrips) total esterase activity

| Structure (SMILES) | LC50 [1] [mgAi/L] | LC50 [2] [mgAi/L] | RatioLC50 [3] | RatioLC50 [4] | LC50 [5] [mgAi/L] | RatioLC50 [6] | IC50 [7] [µM] | IC50 ([5]; Frankliniella occidentalis, FOR) [µM] | IC50 ([2]; Frankliniella occidentalis, ACR) [µM] | IC50 [8] [µM] | IC50 [9] [µM] | LC50 [10] [mgAi/L] | IC50 [11] [µM] |
| --- | --- | --- | --- | --- | --- | --- | --- | --- | --- | --- | --- | --- | --- |
| CC1(C)[C@H](C(=O)O[C@H](C#N)c2cccc(Oc3ccccc3)c2)[C@@H]1/C=C\C(=O)OC(C(F)(F)F)C(F)(F)F [ACRINATHRIN] | 9 | 12870 | 1430 |  |  |  |  |  |  |  |  |  |  |
| CNC(=O)Oc1cccc(/N=C/N(C)C)c1 [FORMETANATE] | 765 |  |  | 26 | 20160 |  |  |  |  |  |  |  |  |
| CNC(=O)Oc1cc(C)c(SC)c(C)c1 [METHIOCARB] | 15 |  |  |  |  | 41 | 2.93 | 2.93 | 2.71 | 2.71 | 1.92 | 620 | 1.98 |
| CCCCOCCOCCOCc1cc2c(cc1CCC)OCO2 [PIPERONYL BUTOXIDE] |  |  |  |  |  |  | 1910 |  |  | 2670 | 2410 |  | 2160 |
| CCCCSP(=O)(SCCCC)SCCCC [S,S,S,-TRIBUTYLPHOSPHOROTRITHIOATE] |  |  |  |  |  |  | 0.51 |  |  | 0.45 | 0.46 |  | 0.52 |

— ChEMBL document CHEMBL3045127, “Esterase inhibition by synergists in the western flower thrips Frankliniella occidentalis” (Pest Manag Sci, 2011)
